In patent US20230100789A1, “Method for activating AMPK and the use of Adenine” (Energenesis Biomedical Co., Ltd., priority 2013, published 2023):

Key:
IL-1β = assay: LPS-induced inflammatory response in THP1 macrophage, secreted IL-1β (ELISA); format: cell-based, human; conditions: THP1 macrophages, 50 ng LPS 6 hr
Method: (§1) Effects of adenine on inflammatory response were evaluated in human THP1 macrophage by examining protein level of intracellular COX-2 and secreted TNFα, IL-1β and IL-6. Differentiation of THP1 monocytes into macrophages was induced by 50 nM PMA for 24 hr. THP1 macrophages were further stimulated by 50 ng LPS for 6 hr in the presence of 10-600 μM of adenine or vehicle followed by cell lysis and western blot analysis. Equal amounts of protein were separated by SDS-PAGE and then electroblotted on to PVDF membranes. Membranes were blocked with 3% BSA in PBS for 60 min and incubated with an anti-COX-2 antibody (1:1,000, Cell signaling), an anti-actin antibody (1:5,000, Cell signaling) at 4° C. overnight followed by the corresponding secondary antibody for 1 h at room temperature (RT). Immunoreactive bands were detected by enhanced chemiluminescence (ECL; Pierce, Rockford, Ill., USA) and recorded using Kodak film (Rochester, N.Y., USA). The detected signals were scanned and then quantified using TotalLab Quant software (TotalLab). The secreted TNFα, IL-1β and IL-6 were analyzed by enzyme-linked immunosorbent assays.

3T3 cells = assay: Fibroblast proliferation assay (trypan blue cell counting); format: cell-based, Human; conditions: 72 h, mean±SEM
Method: Human fibro blast cell line 3T3 were cultured in high-glucose Dulbecco's modified Eagle's medium (DMEM) containing 10% fetal bovine serum (FBS), 4 mM L-glutamine, 2 mM sodium pyruvate and 1% penicillin/streptomycin (Invitrogen GibcoBRL, Carlsbad, Calif., USA) at 37° C. under 5% CO2. For cell proliferation assay, 3T3 cells were plated at 1×10^5 per well (6-well plate). 24 h after plating, cells were treated with indicated concentration of adenine for 72 h and the number of viable cells was counted. Cells were detached using trypsin-EDTA solution and stained with trypan blue. The living cells were counted using hemocytometer. […] Data are presented as the mean±SEM of three independent experiments.

LC3 = assay: Autophagy assay in Neuro2A cells (LC3-II/LC3-I western blot); format: cell-based, mouse; conditions: 24 h
Method: Amyloid β peptide and autophagy assay Effects of adenine on Amyloid β peptide were analyzed in mouse neuroblastoma cell Neuro2A. Neuro2A cells were cultured in high-glucose Dulbecco's modified Eagle's medium (DMEM) containing 10% fetal bovine serum (FBS), 4 mM L-glutamine, 2 mM sodium pyruvate and 1% penicillin/streptomycin (Invitrogen GibcoBRL, Carlsbad, Calif., USA) at 37° C. under 5% CO2. Cells were plated at 3×10^5 per well (6-well plate). 24 h after plating, cells were transfected with human APP695 and treated with indicated concentration of adenine for 24 h followed by cell lysis and western blot analysis. Equal amounts of protein were separated by SDS-PAGE and then electroblotted on to PVDF membranes. Membranes were blocked with 3% BSA in PBS for 60 min and incubated with an anti-Aβ antibody (1:1,000, abcam), an anti-LC3 antibody (1:1,000, Cell signaling), and an anti-actin antibody (1:5,000, Cell signaling) at 4° C. overnight followed by the corresponding secondary antibody for 1 h at room temperature (RT). Immunoreactive bands were detected by enhanced chemiluminescence (ECL; Pierce, Rockford, Ill., USA) and recorded using Kodakfilm (Rochester, N.Y., USA). The detected signals were scanned and then quantified by using TotalLab Quant software (TotalLab).
Because the conversion of LC3-I to LC3-II is indicative of autophagy activity, the higher LC3-II/LC3-I ratio in adenine treated cells reflects the ability of adenine to induce autophagy activity.

Aβ infusion mice = assay: Aβ-induced Alzheimer's disease model mice, Morris water maze; format: in vivo, C57BL/6J mice; conditions: daily IP 0.01, 0.1, 5 or 30 mg/kg for 4 weeks
Method: Aβ25-35 was purchased from Sigma-Aldrich (St. Louis, Mo.). The peptides were dissolved in distilled saline and aggregated by incubation at 37° C. for 7 days before injection. C57BL/6J mice were maintained at 22° C. under a 12-h light/dark cycle. Adult mice were anesthetized by ketamine (500 mg/kg) and xylazine (100 mg/kg) and placed in a stereotaxic frame (Stoelting, Wood Dale, Ill., USA). 5 nmol of the aggregated A1325-35 were injected into the lateral ventricle using a 10-μ1 Hamilton syringe (Hamilton Company, Reno, Nev., USA). The target anterior-posterior (AP), medial-lateral (ML) and dorsoventral coordinates were −0.5 mm, ±1 mm and −2.5 mm relative to the bregma. To evaluate the effect of adenine on neurodegenerative disease, Aβ infusion mice were daily intraperitoneally injected with 0.01, 0.1, 5 or 30 mg/kg bodyweight of adenine or vehicle for 4 weeks. The cognitive functions of these mice were analyzed by using Morris water maze assay after 4 weeks injection. The water maze was performed in a circular pool filled with water and a platform was submerged below the water's surface in the target quadrant for hidden platform test. […] Mice were allowed to swim in the maze for 60 s and recorded by a video camera. The latency to find the platform and swim paths were analyzed by EthoVision software (Version 3.1, Noldus, The Netherlands).

TNFα = assay: LPS-induced inflammatory response in THP1 macrophage, secreted TNFα (ELISA); format: cell-based, human; conditions: THP1 macrophages, 50 ng LPS 6 hr
Method: as §1

high-fat diet-fed mice = assay: Anti-diabetic effects in high-fat diet-fed mice (type 2 diabetes model); format: in vivo, C57BL/6J mice; conditions: IP 0.1 to 50 mg/kg twice a day for 6 days
Method: To further evaluate the effects of adenine on the modulation of plasma glucose level, the high-fat diet-fed mice were served as a type 2 diabetes animal model. C57BL/6J mice were maintained at 22° C. under a 12-h light/dark cycle and fed either a high fat diet (60% kcal % fat) or a normal diet ad libitum. Intraperitoneal injections of adenine (0.1 to 50 mg/kg) or vehicle were given to the high-fat diet-fed mice from the age of 24 weeks and glucose readings were measure at 1 and 3 hr. IP administration of adenine or vehicle only to the high-fat diet-fed mice continued twice a day for 6 days. On day 6, plasma was collected 1 hr after the last dosing for analyzing, evaluating, measuring plasma glucose and triglycerides.

[1] = tested on: 6-mm full-thickness excisional skin wounds; assay: Excisional skin wound healing and scar formation in mice; format: in vivo, C57BL/6J mice
Method: C57BL/6J mice were maintained at 22° C. under a 12-h light/dark cycle. The experiments were performed with 12-weeks old mice. After anesthetized by an intraperitoneal injection of ketamine (500 mg/kg) and xylazine (100 mg/kg), 6-mm full-thickness excisional skin wounds was made on the backs of mice using 6-mm skin biopsy punches. Immediately after wounding, 10-1200 M of adenine in 25 l saline or saline alone was applied to the wound bed. The skin wounds were then covered by semipermeable transparent dressing and fixed to the skin. The mice were treated with adenine or vehicle for 14 days and then sacrificed. The scar formation is assessed by Masson's trichrome staining to observe the fibrosis process and the collagen framework of the healed wound (Fixed by 4% paraformaldehyde).

Nc1ncnc2nc[nH]c12 [Adenine, adenine]
IL-1β•(% to control) (IL-1β; adenine 10 microM): 91 ± 8.4 % to control | IL-1β•(% to control) (IL-1β; adenine 100 microM): 29 ± 5.5 % to control | IL-1β•(% to control) (IL-1β; adenine 600 microM): 17 ± 3.7 % to control | Cell number (% to control) (3T3 cells; adenine 10 microM): 91 ± 2.7 % to control | Cell number (% to control) (3T3 cells; adenine 50 microM): 73 ± 8.1 % to control | Cell number (% to control) (3T3 cells; adenine 100 microM): 64 ± 5.3 % to control | Cell number (% to control) (3T3 cells; adenine 200 microM): 48 ± 2.8 % to control | Cell number (% to control) (3T3 cells; adenine 500 microM): 33 ± 6.4 % to control | Cell number (% to control) (3T3 cells; adenine 1000 microM): 27 ± 11.3 % to control | LC3-II/LC3-Iratio (relative to control) (LC3; adenine 10 microM): 1.2 ± 0.1 relative to control | LC3-II/LC3-Iratio (relative to control) (LC3; adenine 20 microM): 1.8 ± 0.3 relative to control | LC3-II/LC3-Iratio (relative to control) (LC3; adenine 30 microM): 2.8 ± 0.2 relative to control | LC3-II/LC3-Iratio (relative to control) (LC3; adenine 40 microM): 2.9 ± 0.2 relative to control | LC3-II/LC3-Iratio (relative to control) (LC3; adenine 50 microM): 3.2 ± 0.3 relative to control | percentage time in target quadrant, probe assay (Aβ infusion mice): higher percentage time in target quadrant | time to find platform, hidden platform test (Aβ infusion mice; dose-dependent): significantly shorter time to find platform | TNF•(% to control) (TNFα; adenine 10 microM): 85 ± 9.1 % to control | TNF•(% to control) (TNFα; adenine 100 microM): 41 ± 2.6 % to control | TNF•(% to control) (TNFα; adenine 600 microM): 23 ± 1.8 % to control | lower body weight compare to the control group (high-fat diet-fed mice): more than 15% | lower plasma glucose compare to the control group (high-fat diet-fed mice; plasma 1 hr after last dosing): > 30% | lower plasma triacylglycerides compare to the control group (high-fat diet-fed mice; plasma 1 hr after last dosing): more than 35% | lower plasma glucose compare to the control group (high-fat diet-fed mice; plasma 1 hr after last dosing, listed as adenine): more than 30% | scar width ([1]; topical adenine, 14 days post-wounding, vs vehicle treated wounds): significantly decreased the scar width | extent of wound closure ([1]; topical, 10-1200 µM of adenine in 25 µl saline, 14 days of treatment, dose-dependent, vs control mice): significantly greater
